Test system: beta-TC6 cells
Assay: Insulin HTRF assay (relative activity Ar) in beta-TC6 cells
Type: cell-based, mouse
Settings: Mus musculus, Beta-TC6, 4 h, insulin HTRF, supernatant of beta-TC6 cells, incubation with test compound at 37°C for 2, 3, 4h; read-out: Ar (relative activity)
How it was run: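 beta-TC6 cells (15k/well, seeded 24 or 48 h) washed, then exposed to compound in induction buffer (0.5% DMSO final) for 2, 3 or 4 h at 37°C.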

`CC(=O)Nc1cccc(Nc2cc3c(cn2)nc(-c2ccco2)n3C)c1` [Compound 712, N-[3-[[2-(2-furyl)-1-methyl-imidazo[4,5-c]pyridin-6-yl]amino]phenyl]acetamide] and `CC(=O)Nc1ccc(Nc2cc3c(cn2)nc(-c2cccc(F)c2)n3C)cc1` [Compound 713, N-[4-[[2-(3-fluorophenyl)-1-methyl-imidazo[4,5-c]pyridin-6-yl]amino]phenyl]acetamide] fall in the same range of Emax: 50 to 100% for the first, 50 to 100% for the second.

First: Cn1c(-c2cccc(F)c2)nc2cnc(Nc3ccc4c(c3)OCO4)cc21 [Compound 714, N-(1,3-benzodioxol-5-yl)-2-(3-fluorophenyl)-1-methyl-imidazo[4,5-c]pyridin-6-amine]
Second: COc1ccc(-c2nc3cnc(Nc4ccc5c(c4)OCO5)cc3n2C)cc1OC [Compound 722, N-(1,3-benzodioxol-5-yl)-2-(3,4-dimethoxyphenyl)-1-methyl-imidazo[4,5-c]pyridin-6-amine]
The Emax of the first is higher: 50 to 100% for the first, 30 to 50% for the second.

`CN(C)C(=O)c1ccc(Nc2cc3c(cn2)nc(-c2cccc(F)c2)n3C)cc1` [Compound 715, 4-[[2-(3-fluorophenyl)-1-methyl-imidazo[4,5-c]pyridin-6-yl]amino]-N,N-dimethyl-benzamide] and `COc1ccc(-c2nc3cnc(Nc4ccc(C(N)=O)cc4)cc3n2C)cc1OC` [Compound 719, 4-[[2-(3,4-dimethoxyphenyl)-1-methyl-imidazo[4,5-c]pyridin-6-yl]amino]benzamide] fall in the same range of Emax: 30 to 50% for the first, 30 to 50% for the second.

First: COc1ccc(-c2nc3cnc(Nc4cc(OC)c(OC)c(OC)c4)cc3n2C)cc1OC [Compound 716, 2-(3,4-dimethoxyphenyl)-1-methyl-N-(3,4,5-trimethoxyphenyl)imidazo[4,5-c]pyridin-6-amine]
Second: COc1ccc(Nc2cc3c(cn2)nc(-c2ccc(OC)c(OC)c2)n3C)cc1O [Compound 723, 5-[[2-(3,4-dimethoxyphenyl)-1-methyl-imidazo[4,5-c]pyridin-6-yl]amino]-2-methoxy-phenol]
The Emax of the first is lower: 50 to 100% for the first, > 100% for the second.

`COc1ccc(-c2nc3cnc(Nc4ccc(NC(C)=O)cc4)cc3n2C)cc1OC` [Compound 717, N-[4-[[2-(3,4-dimethoxyphenyl)-1-methyl-imidazo[4,5-c]pyridin-6-yl]amino]phenyl]acetamide] and `COc1ccc(Nc2cc3c(cn2)nc(-c2ccc(OC)c(OC)c2)n3C)cc1` [Compound 721, 2-(3,4-dimethoxyphenyl)-N-(4-methoxyphenyl)-1-methyl-imidazo[4,5-c]pyridin-6-amine] fall in the same range of Emax: 50 to 100% for the first, 50 to 100% for the second.

Compared with `COc1cccc(Nc2cc3c(cn2)nc(-c2ccc(OC)c(OC)c2)n3C)c1` [Compound 718, 2-(3,4-dimethoxyphenyl)-N-(3-methoxyphenyl)-1-methyl-imidazo[4,5-c]pyridin-6-amine], `COc1ccc(Nc2cc3c(cn2)nc(-c2ccc(OC)c(OC)c2)n3C)c(C)c1` [Compound 720, 2-(3,4-dimethoxyphenyl)-N-(4-methoxy-2-methyl-phenyl)-1-methyl-imidazo[4,5-c]pyridin-6-amine] is lower in Emax: 50 to 100% for the first, 30 to 50% for the second.

`COc1cc(Nc2cc3c(cn2)nc(-c2ccncc2)n3C)cc(OC)c1OC` [Compound 724, 1-methyl-2-(4-pyridyl)-N-(3,4,5-trimethoxyphenyl)imidazo[4,5-c]pyridin-6-amine] and `COc1cc(Nc2cc3c(cn2)nc(Cc2cccnc2)n3C)cc(OC)c1OC` [Compound 729, 1-methyl-2-(3-pyridylmethyl)-N-(3,4,5-trimethoxyphenyl)imidazo[4,5-c]pyridin-6-amine] fall in the same range of Emax: 30 to 50% for the first, 30 to 50% for the second.

Compared with `COc1cc(Nc2cc3c(cn2)ncn3C)cc(OC)c1OC` [Compound 725, 1-methyl-N-(3,4,5-trimethoxyphenyl)imidazo[4,5-c]pyridin-6-amine], `COc1ccc(Nc2cc3c(cn2)ncn3C)c(OC)c1` [Compound 727, N-(2,4-dimethoxyphenyl)-1-methyl-imidazo[4,5-c]pyridin-6-amine] is higher in Emax: 30 to 50% for the first, 50 to 100% for the second.

With `CC(=O)Nc1ccc(Nc2cc3c(cn2)ncn3C)cc1` [Compound 726, N-[4-[(1-methylimidazo[4,5-c]pyridin-6-yl)amino]phenyl]acetamide] the Emax was 50 to 100%.

— patent publication EP2818472A1, “Imidazo[4,5-c]pyridine and pyrrolo[3,2-c]pyridine compounds as G-protein-coupled receptor kinase 5 (GRK5) modulators” (Max-Planck-Gesellschaft zur Förderung der Wissenschaften …, priority 2013, dated 2014)
